Values joined by “and” are separate entries in the source; they are usually repeats but may differ in a detail not shown here. Equal entries are not always repeated.
System: CT26 murine colon carcinoma cells
Assay: CT26 Tumor Size Assay (Example 2)
Assay type: in vivo, BALB/c mice
Settings: for Median TTE: 39-day study
Experimental: The animals were fed ad libitum water (reverse osmosis, 1 ppm CI) and NIH 31 Modified and Irradiated Lab Diet® consisting of 18.0% crude protein, 5.0% crude fat, and 5.0% crude fiber. The mice were housed on irradiated Enrich-o'Cobs™ bedding in static microisolators on a 12-hour light cycle at 20-22° C. (68-72° F.) and 40-60% humidity.
CT26 murine colon carcinoma cells were grown in RPMI-1640 medium containing 10% fetal bovine serum, 2 mM glutamine, 100 units/mL penicillin G sodium, 100 μg/mL streptomycin sulfate, and 25 μg/mL gentamicin. The cells were cultured in tissue culture flasks in a humidified incubator at 37° C., in an atmosphere of 5% CO2 and 95% air.
The CT26 colon cells used for implantation were harvested during log phase growth and re-suspended in cold PBS. Each mouse was injected subcutaneously in the right flank with 3×10^5 tumor cells (0.1 mL cell suspension) and tumors were monitored as their volumes approached the target range of 75 to 125 mm3. Fourteen days after tumor implantation, on Day 1 of the study, animals with individual tumor volumes ranging from 75 to 125 mm^3 were sorted into fourteen groups (n=10) with group mean tumor volumes of 118-119 mm3. Tumors were measured with calipers twice weekly in two dimensions.
where w=width and l=length, in mm, of a tumor. Tumor weight was estimated with the assumption that 1 mg is equivalent to 1 mm3 of tumor volume.
The compound of formula (I), rat IgG2a (Clone 2A3) (5.55 mg/mL), anti-mCD40 (Clone FGK45) (5.46 mg/mL, purchased from BioXCell, anti-mouse CD40, Clone: FGK45, SKU: 13E0016-2, Lot No. 4699/0614B), and anti-CSF1R (5.41 mg/mL, purchased from BioXCell anti-mouse CSF1R (CD115), Clone: AFS98, SKU: BE0213, Lot No. 5248/0814) were used as test compounds, alone and in combination. The compound of formula (I) was stored at room temperature and antibody stock solutions were stored at 4° C. upon receipt.
Each week of dosing, the compound of formula (I) was dissolved in 0.5% HPMC to yield a 1.0 mg/mL dosing solution. The dosing solution was stored at 4° C., protected from light. The rat IgG2a isotype and anti-CSF1R dosing solutions were prepared fresh each day by diluting aliquots of the stock solutions with PBS to yield 1.0 mg/mL dosing solutions. The dosing solutions were stored at 4° C., protected from light. The anti-mCD40 dosing solution was prepared fresh each day by diluting an aliquot of the stock solution with PBS to yield a 0.5 mg/mL dosing solution. The dosing solution was stored at 4° C., protected from light.
On Day 1 of the study, fourteen groups of BALB/c mice (n=10) began dosing according to the following protocol.
The vehicle (0.5% HPMC) and the compound of formula (I) were administered orally (p.o.). The rat IgG2a isotype control, anti-mCD40, and anti-CSF1R were administered intraperitoneally (i.p.). Rat IgG2a(2A3), the compound of formula (I) and the anti-CSF1R were administered at 10 mg/kg. The anti-mCD40 was administered at 5 mg/kg. The dosing volume for all animals was 10 mL/kg (0.2 mL per 20-g mouse) and was adjusted for body weight.
Tumors were measured using calipers twice per week. The study endpoint was originally defined as a mean tumor volume of 1500 mm^3 in the control group or 60 days, whichever came first. Day 15 was chosen for TGI analysis. The MTV (n), the median tumor volume for the number of animals, n, on Day 15, was determined for each group. Percent tumor growth inhibition (% TGI) was defined as the difference between the MTV of the designated control group (Group 1) and the MTV of the drug-treated group, expressed as a percentage of the MTV of the control group: […]
The data set for TGI analysis includes all animals in a group, except those that die due to treatment-related (TR) or non-treatment-related (NTR) causes.
Animals were monitored individually for tumor growth until Day 39. The study protocol specified a tumor growth delay assay based on the median time-to-endpoint (TTE) in a treated group versus the control group. […]

[1] = Groups 3-7: all dosing from Day 1 (antibodies i.p. Days 1, 5, 9, formula (I) p.o. bid×14), formula (I) and anti-CSF1R 10 mg/kg, anti-mCD40 5 mg/kg, vs rat IgG2a control Group 1
[2] = Groups 9, 11, 13, 14: formula (I) 10 mg/kg p.o. bid×14 beginning Day 4 or anti-CSF1R 10 mg/kg i.p. Days 4, 8, 12, in combinations anti-mCD40 5 mg/kg i.p. Days 1, 5, 9, vs rat IgG2a control Group 1

Question: `CC1(C)CC=C(c2nc(C3CC(C)(C)OC(C)(C)C3)ccc2NC(=O)c2nc(C#N)c[nH]2)CC1` [compound of formula (I), 4-cyano-N-(2-(4,4-dimethylcyclohex-1-en-1-yl)-6-(2,2,6,6-tetramethyltetrahydro-2H-pyran-4-yl)pyridin-3-yl)-1H-imidazole-2-carboxamide] was tested. Which “MTV (n) Day 15” value (Day 15, Groups 3-7: all dosing from Day 1 (antibodies i.p. Days 1, 5, 9, formula (I) p.o. bid×14), formula (I) and anti-CSF1R 10 mg/kg, anti-mCD40 5 mg/kg) did it give?
Answer: 1913 mm^3

Question: And the “MTV (n) Day 15” value (Day 15, Groups 9, 11, 13, 14: formula (I) 10 mg/kg p.o. bid×14 beginning Day 4 or anti-CSF1R 10 mg/kg i.p. Days 4, 8, 12, in combinations anti-mCD40 5 mg/kg i.p. Days 1, 5, 9)?
Answer: 1545 mm^3 and 1545 (8) mm^3

Question: And the “% TGI” value (Day 15, vs rat IgG2a control Group 1, Groups 3-7: all dosing from Day 1 (antibodies i.p. Days 1, 5, 9, formula (I) p.o. bid×14), formula (I) and anti-CSF1R 10 mg/kg, anti-mCD40 5 mg/kg)?
Answer: 23%

Question: And the “% TGI” value (Day 15, vs rat IgG2a control Group 1, Groups 9, 11, 13, 14: formula (I) 10 mg/kg p.o. bid×14 beginning Day 4 or anti-CSF1R 10 mg/kg i.p. Days 4, 8, 12, in combinations anti-mCD40 5 mg/kg i.p. Days 1, 5, 9)?
Answer: 38%

Question: What about the “Median TTE” value (Groups 3-7: all dosing from Day 1 (antibodies i.p. Days 1, 5, 9, formula (I) p.o. bid×14), formula (I) and anti-CSF1R 10 mg/kg, anti-mCD40 5 mg/kg, 1500 mm^3 endpoint) of the same compound?
Answer: 13.0 days

Question: What about the “% TGD” value [1] of the same compound?
Answer: 7%

Question: What about the T-C [1] of the same compound?
Answer: 0.9 days

Question: What about the “Median TTE” value (Groups 9, 11, 13, 14: formula (I) 10 mg/kg p.o. bid×14 beginning Day 4 or anti-CSF1R 10 mg/kg i.p. Days 4, 8, 12, in combinations anti-mCD40 5 mg/kg i.p. Days 1, 5, 9, 1500 mm^3 endpoint) of the same compound?
Answer: 13.9 days

Question: What about the “% TGD” value [2] of the same compound?
Answer: 15%

Question: And the T-C [2]?
Answer: 1.8 days
